Assays:
Assay in all cases: Eurofins kinase panel
Format in all cases: biochemical
Details in all cases: read-out: Inhibition rate (%)
SRPK1(h) = molecular target: T1, SRPK1(h) (Homo sapiens, UniProt Q96SB4)
T1 construct: purchased Eurofins (KinaseProfiler)

DAPK2(h) = molecular target: T2, DAPK2(h) (Homo sapiens, UniProt Q9UIK4)
T2 construct: purchased Eurofins (KinaseProfiler)

Ros(h) = molecular target: T3, Ros(h) (Homo sapiens, UniProt P08922)
T3 construct: purchased Eurofins (KinaseProfiler)
T3 sequence (P08922 28-2347): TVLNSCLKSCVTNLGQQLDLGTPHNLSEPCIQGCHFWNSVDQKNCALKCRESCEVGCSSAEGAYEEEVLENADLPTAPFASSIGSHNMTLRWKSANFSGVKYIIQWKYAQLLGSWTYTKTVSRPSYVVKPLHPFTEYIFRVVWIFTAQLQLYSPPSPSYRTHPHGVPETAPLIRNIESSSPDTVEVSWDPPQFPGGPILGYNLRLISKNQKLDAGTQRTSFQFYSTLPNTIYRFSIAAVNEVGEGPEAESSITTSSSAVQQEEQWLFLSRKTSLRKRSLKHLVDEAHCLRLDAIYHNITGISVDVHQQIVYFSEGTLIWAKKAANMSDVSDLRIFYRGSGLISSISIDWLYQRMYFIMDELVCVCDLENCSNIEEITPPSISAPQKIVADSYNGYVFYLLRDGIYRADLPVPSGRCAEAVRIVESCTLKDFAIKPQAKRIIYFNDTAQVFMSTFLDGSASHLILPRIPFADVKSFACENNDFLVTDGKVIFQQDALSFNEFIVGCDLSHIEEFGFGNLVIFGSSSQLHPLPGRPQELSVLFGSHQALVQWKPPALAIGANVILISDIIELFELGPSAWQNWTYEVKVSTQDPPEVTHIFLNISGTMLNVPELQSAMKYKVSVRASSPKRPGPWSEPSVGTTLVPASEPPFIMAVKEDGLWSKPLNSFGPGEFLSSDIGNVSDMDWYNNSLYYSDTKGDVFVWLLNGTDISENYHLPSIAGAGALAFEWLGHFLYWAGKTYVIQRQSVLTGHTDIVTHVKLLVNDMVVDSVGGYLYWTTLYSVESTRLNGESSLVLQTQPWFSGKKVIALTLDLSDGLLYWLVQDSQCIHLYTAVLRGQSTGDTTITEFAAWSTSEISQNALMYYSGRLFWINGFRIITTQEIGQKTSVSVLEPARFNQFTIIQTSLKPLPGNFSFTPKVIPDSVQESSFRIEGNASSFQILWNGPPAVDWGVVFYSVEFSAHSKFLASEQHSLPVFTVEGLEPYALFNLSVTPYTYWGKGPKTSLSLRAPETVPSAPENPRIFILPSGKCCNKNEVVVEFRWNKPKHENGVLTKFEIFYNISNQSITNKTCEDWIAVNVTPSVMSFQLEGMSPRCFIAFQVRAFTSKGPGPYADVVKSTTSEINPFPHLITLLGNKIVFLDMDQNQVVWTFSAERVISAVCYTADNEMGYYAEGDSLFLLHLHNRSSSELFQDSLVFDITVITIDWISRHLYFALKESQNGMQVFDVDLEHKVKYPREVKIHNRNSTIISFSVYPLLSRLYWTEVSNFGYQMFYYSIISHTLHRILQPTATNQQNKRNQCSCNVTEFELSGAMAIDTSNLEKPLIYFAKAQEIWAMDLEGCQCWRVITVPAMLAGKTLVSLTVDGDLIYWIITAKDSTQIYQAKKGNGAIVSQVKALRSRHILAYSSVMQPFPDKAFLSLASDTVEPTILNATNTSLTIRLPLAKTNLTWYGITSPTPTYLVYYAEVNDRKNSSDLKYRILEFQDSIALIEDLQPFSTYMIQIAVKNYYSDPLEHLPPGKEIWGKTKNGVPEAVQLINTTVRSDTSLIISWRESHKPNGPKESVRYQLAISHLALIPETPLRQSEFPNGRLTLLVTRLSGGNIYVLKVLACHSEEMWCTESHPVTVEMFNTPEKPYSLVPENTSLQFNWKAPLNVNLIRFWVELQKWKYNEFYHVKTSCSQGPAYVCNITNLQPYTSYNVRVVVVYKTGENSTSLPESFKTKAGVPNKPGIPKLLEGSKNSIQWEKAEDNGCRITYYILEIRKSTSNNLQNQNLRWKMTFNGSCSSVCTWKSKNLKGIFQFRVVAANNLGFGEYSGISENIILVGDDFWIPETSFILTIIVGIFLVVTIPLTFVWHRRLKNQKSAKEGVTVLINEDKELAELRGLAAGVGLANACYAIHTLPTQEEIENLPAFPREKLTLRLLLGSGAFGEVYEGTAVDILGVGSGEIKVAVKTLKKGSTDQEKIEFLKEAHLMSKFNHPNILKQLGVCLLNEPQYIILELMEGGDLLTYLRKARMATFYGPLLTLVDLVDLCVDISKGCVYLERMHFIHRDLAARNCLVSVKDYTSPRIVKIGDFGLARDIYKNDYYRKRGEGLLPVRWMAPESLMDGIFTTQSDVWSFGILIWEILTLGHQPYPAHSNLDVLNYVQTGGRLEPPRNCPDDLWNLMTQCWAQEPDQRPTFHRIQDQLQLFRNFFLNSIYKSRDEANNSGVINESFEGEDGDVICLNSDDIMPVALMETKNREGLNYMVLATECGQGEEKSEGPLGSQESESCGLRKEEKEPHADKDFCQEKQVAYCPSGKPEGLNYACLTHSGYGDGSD

CDK5/p25(h) = molecular target: T4, CDK5/p25(h) (Homo sapiens, UniProt Q00535)
T4 construct: purchased Eurofins (KinaseProfiler)
T4 sequence (Q00535 whole entry): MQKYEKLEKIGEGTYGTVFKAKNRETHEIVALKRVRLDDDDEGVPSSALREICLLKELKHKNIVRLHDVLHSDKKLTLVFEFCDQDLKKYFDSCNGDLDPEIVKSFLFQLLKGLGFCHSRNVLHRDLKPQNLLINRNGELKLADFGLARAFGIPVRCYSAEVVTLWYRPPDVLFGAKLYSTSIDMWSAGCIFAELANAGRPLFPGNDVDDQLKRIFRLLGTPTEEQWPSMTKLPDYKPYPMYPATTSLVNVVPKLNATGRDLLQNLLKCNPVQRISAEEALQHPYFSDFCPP
T4 sequence (Q15078 99-307 partner limits assumed): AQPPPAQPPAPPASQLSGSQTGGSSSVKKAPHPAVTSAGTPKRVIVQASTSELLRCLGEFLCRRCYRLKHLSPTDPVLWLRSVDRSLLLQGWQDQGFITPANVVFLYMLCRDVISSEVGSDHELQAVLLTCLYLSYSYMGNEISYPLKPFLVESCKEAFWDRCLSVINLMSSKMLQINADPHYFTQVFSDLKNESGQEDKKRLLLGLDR

CK2α2(h) = molecular target: T5, CK2α2(h) (Homo sapiens, UniProt P19784)
T5 construct: purchased Eurofins (KinaseProfiler)
T5 sequence (P19784 whole entry): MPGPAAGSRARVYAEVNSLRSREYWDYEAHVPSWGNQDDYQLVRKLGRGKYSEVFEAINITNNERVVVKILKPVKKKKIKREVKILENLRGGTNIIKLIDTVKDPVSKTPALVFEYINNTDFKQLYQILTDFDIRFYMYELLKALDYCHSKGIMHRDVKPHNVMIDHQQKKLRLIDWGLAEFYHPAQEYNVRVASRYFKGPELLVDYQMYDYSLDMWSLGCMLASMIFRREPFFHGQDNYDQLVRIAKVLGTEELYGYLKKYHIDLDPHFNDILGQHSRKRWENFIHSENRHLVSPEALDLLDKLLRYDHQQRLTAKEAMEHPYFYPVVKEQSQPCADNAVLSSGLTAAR

TAO2(h) = molecular target: T6, TAO2(h) (Homo sapiens, UniProt Q9UL54)
T6 construct: purchased Eurofins (KinaseProfiler)
T6 sequence (Q9UL54 1-1235): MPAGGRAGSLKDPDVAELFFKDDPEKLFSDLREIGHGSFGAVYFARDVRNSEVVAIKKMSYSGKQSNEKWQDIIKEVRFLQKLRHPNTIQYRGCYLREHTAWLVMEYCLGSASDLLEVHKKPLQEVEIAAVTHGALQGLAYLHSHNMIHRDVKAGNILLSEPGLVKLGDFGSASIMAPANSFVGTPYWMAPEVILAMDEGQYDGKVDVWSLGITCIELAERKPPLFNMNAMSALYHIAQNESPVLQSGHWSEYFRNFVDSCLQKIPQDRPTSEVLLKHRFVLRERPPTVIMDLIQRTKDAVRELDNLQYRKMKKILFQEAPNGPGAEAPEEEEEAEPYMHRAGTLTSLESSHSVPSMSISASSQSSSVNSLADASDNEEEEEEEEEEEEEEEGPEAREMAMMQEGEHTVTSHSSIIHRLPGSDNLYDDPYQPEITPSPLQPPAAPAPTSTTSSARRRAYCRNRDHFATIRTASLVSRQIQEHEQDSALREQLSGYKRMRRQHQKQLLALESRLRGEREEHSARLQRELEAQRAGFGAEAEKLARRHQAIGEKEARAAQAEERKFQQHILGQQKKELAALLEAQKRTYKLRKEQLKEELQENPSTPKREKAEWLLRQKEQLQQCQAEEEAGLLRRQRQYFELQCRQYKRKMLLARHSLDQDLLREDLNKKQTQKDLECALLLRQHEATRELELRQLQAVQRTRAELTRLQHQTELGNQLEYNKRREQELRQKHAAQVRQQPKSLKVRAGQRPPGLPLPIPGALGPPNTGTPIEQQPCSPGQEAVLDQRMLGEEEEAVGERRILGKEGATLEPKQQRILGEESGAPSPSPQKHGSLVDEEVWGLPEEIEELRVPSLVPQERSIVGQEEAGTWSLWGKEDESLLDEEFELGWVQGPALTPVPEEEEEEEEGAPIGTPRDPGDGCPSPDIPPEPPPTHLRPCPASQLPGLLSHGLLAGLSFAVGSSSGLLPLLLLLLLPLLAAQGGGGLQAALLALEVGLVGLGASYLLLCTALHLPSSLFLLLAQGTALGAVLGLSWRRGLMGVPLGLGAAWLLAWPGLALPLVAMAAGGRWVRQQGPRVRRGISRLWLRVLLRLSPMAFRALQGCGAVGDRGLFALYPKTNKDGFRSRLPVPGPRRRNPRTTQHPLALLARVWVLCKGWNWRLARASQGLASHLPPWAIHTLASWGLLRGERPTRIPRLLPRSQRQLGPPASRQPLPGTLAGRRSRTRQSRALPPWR

LTK(h) = molecular target: T7, LTK(h) (Homo sapiens, UniProt P29376)
T7 construct: purchased Eurofins (KinaseProfiler)
T7 sequence (P29376 17-864): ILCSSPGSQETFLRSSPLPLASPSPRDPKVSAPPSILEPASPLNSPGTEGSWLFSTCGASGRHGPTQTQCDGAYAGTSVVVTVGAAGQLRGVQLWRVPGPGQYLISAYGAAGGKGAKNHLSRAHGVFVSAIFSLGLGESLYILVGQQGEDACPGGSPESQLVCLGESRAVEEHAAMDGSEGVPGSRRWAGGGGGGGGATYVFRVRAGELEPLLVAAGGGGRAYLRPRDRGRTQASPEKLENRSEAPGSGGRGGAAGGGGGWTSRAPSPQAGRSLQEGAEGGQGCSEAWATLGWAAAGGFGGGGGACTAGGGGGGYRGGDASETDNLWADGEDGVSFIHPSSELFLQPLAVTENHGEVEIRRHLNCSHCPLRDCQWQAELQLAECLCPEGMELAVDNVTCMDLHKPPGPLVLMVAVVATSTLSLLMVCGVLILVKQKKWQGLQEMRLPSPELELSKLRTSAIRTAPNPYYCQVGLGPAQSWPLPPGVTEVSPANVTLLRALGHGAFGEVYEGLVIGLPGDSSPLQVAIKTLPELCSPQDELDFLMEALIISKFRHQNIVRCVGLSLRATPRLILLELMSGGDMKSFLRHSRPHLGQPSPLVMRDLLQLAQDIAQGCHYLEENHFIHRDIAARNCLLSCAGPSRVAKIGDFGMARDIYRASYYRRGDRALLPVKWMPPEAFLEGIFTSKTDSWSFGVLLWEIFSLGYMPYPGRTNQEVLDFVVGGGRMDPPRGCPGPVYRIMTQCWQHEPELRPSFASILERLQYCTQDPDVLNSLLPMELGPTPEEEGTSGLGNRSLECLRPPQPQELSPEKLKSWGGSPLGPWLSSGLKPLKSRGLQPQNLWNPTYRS

Plk4(h) = molecular target: T8, Plk4(h) (Homo sapiens, UniProt O00444)
T8 construct: purchased Eurofins (KinaseProfiler)
T8 sequence (O00444 1-970): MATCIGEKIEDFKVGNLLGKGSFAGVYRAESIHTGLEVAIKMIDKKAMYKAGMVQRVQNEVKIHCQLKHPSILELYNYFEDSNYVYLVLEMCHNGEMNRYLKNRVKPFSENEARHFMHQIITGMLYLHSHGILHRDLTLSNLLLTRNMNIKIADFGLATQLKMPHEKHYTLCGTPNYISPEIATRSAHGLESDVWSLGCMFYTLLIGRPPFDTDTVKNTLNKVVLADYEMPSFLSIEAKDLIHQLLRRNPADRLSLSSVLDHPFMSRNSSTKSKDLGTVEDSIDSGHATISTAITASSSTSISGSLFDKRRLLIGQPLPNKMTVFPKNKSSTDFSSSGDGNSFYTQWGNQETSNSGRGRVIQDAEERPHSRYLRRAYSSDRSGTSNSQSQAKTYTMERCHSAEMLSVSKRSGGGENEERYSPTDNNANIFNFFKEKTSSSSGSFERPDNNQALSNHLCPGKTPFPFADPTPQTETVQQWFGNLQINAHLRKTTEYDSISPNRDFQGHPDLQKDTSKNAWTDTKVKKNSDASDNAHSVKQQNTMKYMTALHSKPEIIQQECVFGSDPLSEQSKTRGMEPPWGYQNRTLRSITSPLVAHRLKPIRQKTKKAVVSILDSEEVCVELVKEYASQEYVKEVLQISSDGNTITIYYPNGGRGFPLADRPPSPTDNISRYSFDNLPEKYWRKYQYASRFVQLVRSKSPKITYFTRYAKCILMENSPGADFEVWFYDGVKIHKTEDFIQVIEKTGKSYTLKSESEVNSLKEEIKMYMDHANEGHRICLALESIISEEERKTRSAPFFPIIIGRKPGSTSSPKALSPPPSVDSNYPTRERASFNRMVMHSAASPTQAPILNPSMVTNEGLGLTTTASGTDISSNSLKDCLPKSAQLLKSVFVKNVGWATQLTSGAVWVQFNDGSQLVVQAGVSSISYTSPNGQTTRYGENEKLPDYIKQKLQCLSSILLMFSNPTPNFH

T2 sequence (Q9UIK4 whole entry): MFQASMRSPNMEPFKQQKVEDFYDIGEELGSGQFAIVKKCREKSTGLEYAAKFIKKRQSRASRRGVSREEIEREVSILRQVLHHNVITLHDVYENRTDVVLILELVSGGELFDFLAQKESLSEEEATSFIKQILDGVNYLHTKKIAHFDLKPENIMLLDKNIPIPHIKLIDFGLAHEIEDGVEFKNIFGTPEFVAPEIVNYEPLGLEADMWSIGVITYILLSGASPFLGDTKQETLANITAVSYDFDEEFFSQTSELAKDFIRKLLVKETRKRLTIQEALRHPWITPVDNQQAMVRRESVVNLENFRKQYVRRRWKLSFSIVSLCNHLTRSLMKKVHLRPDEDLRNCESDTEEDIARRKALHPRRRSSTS
T1 sequence (Q96SB4 whole entry): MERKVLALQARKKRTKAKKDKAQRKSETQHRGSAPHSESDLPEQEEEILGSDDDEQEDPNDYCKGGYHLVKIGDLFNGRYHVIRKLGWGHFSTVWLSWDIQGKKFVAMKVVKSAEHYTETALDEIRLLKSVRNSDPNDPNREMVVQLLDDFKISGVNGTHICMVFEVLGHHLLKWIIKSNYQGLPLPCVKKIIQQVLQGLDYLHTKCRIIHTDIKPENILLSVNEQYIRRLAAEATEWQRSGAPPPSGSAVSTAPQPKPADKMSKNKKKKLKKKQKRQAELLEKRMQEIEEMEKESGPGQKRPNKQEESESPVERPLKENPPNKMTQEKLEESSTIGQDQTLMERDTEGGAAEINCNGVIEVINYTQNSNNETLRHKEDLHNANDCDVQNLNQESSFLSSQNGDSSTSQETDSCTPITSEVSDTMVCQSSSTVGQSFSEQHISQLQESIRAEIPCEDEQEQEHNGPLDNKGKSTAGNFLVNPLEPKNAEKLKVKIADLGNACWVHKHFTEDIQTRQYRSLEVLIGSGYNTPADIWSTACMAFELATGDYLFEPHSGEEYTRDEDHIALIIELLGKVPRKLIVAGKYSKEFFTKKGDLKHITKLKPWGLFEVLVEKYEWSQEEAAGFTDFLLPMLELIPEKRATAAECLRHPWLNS

COc1cc(OC)c(Cl)c(-c2ccc3c(NC(=O)c4ccc(N5CCNC(C)(C)C5)cc4)n[nH]c3n2)c1Cl [3D185]
inhibition at 0.01 µM (SRPK1(h); 10 nM): 13% | inhibition at 0.1 µM (SRPK1(h); 100 nM): 9% | inhibition at 1 µM (SRPK1(h); 1000 nM): 12% | inhibition at 0.01 µM (DAPK2(h); 10 nM): 1% | inhibition at 0.1 µM (DAPK2(h); 100 nM): -8% | inhibition at 1 µM (DAPK2(h); 1000 nM): 2% | inhibition at 0.01 µM (Ros(h); 10 nM): -4% | inhibition at 0.1 µM (Ros(h); 100 nM): 6% | inhibition at 1 µM (Ros(h); 1000 nM): 17% | inhibition at 0.01 µM (CDK5/p25(h); 10 nM): 10% | inhibition at 0.1 µM (CDK5/p25(h); 100 nM): 4% | inhibition at 1 µM (CDK5/p25(h); 1000 nM): 3% | inhibition at 0.01 µM (CK2α2(h); 10 nM): 0% | inhibition at 0.1 µM (CK2α2(h); 100 nM): 1% | inhibition at 1 µM (CK2α2(h); 1000 nM): -6% | inhibition at 0.01 µM (TAO2(h); 10 nM): 12% | inhibition at 0.1 µM (TAO2(h); 100 nM): 28% | inhibition at 1 µM (TAO2(h); 1000 nM): 66% | inhibition at 0.01 µM (LTK(h); 10 nM): -8% | inhibition at 0.1 µM (LTK(h); 100 nM): 1% | inhibition at 1 µM (LTK(h); 1000 nM): 37% | inhibition at 0.01 µM (Plk4(h); 10 nM): -18% | inhibition at 0.1 µM (Plk4(h); 100 nM): -20% | inhibition at 1 µM (Plk4(h); 1000 nM): -17%
